Key:
[1] = test system: soybean rust fungus (Phakopsora pachyrhizi) having an amino acid substitution of F129L on mitochondrial cytochrome b protein; experiment: Comparative Test Example 1: soybean leaf disk test versus commercial QoI fungicides; format: in vivo; conditions: method of Test Example 1
Procedure: A soybean leaf (cv; Kurosengoku) was punched out to 1 cm diameter to prepare a leaf disk. Each 1 mL of 1.2% agar medium was dispensed in 24 well microplate. A piece of the leaf disk was placed on each well. To a mixture of 0.5 μL of Sorpol (registered trademark) 1200KX, 4.5 μL of DMSO, and 5 μL of xylene was added 20 μL of a solution containing 10,000 ppm of the test compound in DMSO. The resulting mixture was diluted with ion exchange water to prepare a spray solution containing a predetermined concentration of the test compound. The spray solution was sprayed in 10 μL per one leaf disk. After 1 day, an aqueous suspension of spores of soybean rust fungus (Phakopsora pachyrhizi) having an amino acid substitution of F129L on mitochondrial cytochrome b protein (1.0×10^5/mL) was inoculated onto the leaf disks. After the inoculation, the microplate was placed in a growth chamber (light on for 6 hours, light off for 18 hours, 23° C. temperature, 60% humidity). After 1 day, the leaf disks were air-dried to disappear water droplets on the surface of the leaf disk, and the microplate was placed again in the growth chamber for 10 to 14 days. Thereafter, a lesion area of soybean rust disease was assessed. […] Here the untreated means that the spray solution containing the test compound was not sprayed onto the leaf disk.
The test was conducted by using as a test compound the compound 1, 4 or 9 of the present invention, the present compound 7, 8, 15, 18, 23, 31 or 37, pyribencarb, azoxystrobin, dimoxystrobin, metominostrobin, Fluoxastrobin, or Kresoxim-methyl at 50 ppm according to a method described in the Test Example 1. The results are indicated in [Table A] and [Table B].

[2] = test system: soybean rust fungus strain with single amino acid substitution of F129L in the cytochrome b gene; conditions: F129L QoI-resistant soybean rust fungi; background art; cited from earlier work

Compound: CO/N=C(/C1=NOCCO1)c1ccccc1Oc1ncnc(Oc2ccccc2Cl)c1F [Fluoxastrobin]
- Lesion area (%) at 50 ppm [1]: 100%
- efficacy against the resistant fungi [2]: reduced to the level of practical problems

Compound: CO/N=C(/C(=O)OC)c1ccccc1COc1ccccc1C [Kresoxim-methyl]
- Lesion area (%) at 50 ppm [1]: 100%
- efficacy against the resistant fungi [2]: reduced to the level of practical problems

Compound: CO/C=C(/C(=O)OC)c1ccccc1Oc1cc(Oc2ccccc2C#N)ncn1 [Azoxystrobin]
- Lesion area (%) at 50 ppm [1]: 100%
- efficacy against the resistant fungi [2]: reduced to the level of practical problems

Compound: CO/C=C(\Oc1cc(Cc2ccccc2)ccc1C)C(=O)OC [Present compound 18]
- Lesion area (%) at 50 ppm [1]: 0%

Compound: CO/C=C(\Oc1cccc(C(=O)c2ccccc2)c1)C(=O)OC [Present compound 8]
- Lesion area (%) at 50 ppm [1]: 10%

Compound: Metominostrobin
- Lesion area (%) at 50 ppm [1]: 100%
- efficacy against the resistant fungi [2]: reduced to the level of practical problems

Compound: CO/C=C(\Oc1cc(C2CC2)ccc1C)C(=O)OC [Compound 1 of the present invention]
- Lesion area (%) at 50 ppm [1]: 0%

Compound: CO/C=C(\Oc1cc(Oc2ccccc2)ccc1C)C(=O)OC [Present compound 15]
- Lesion area (%) at 50 ppm [1]: 0%

Compound: CO/C=C(\Oc1cc(C2OCCCO2)ccc1C)C(=O)OC [Compound 4 of the present invention]
- Lesion area (%) at 50 ppm [1]: 10%

Compound: CO/C=C(/C(=O)OC)N(C)c1cccc(Oc2ccccc2C)c1 [Present compound 7]
- Lesion area (%) at 50 ppm [1]: 10%

Compound: COC(=O)NCc1cc(/C(C)=N/OCc2cccc(C)n2)ccc1Cl [Pyribencarb]
- Lesion area (%) at 50 ppm [1]: 100%
- efficacy against the resistant fungi [2]: reduced to the level of practical problems

Compound: CO/C=C(\Oc1cc(/N=C/N(C)c2ccccc2)ccc1C)C(=O)OC [Compound 9 of the present invention]
- Lesion area (%) at 50 ppm [1]: 10%

Compound: CNC(=O)/C(=N/OC)c1ccccc1COc1cc(C)ccc1C [Dimoxystrobin]
- Lesion area (%) at 50 ppm [1]: 100%
- efficacy against the resistant fungi [2]: reduced to the level of practical problems
